Our source for the IC50 and MTAP intact/deleted ratio values is US11999727B2 (Tango Therapeutics, Inc., priority 2020, dated 2024).

In experiment [1] the test system is HAP1 MTAP-intact cell line. Description: SDMA in-cell western assay, HAP1 MTAP-intact. The class given is cell-based. To be noted: Homo sapiens, HAP1, SDMA in-cell western, HAP1 MTAP-intact; read-out: MTAP HAP1 intact IC50. The procedure, abridged: (§1)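 IC50 values come from SDMA signal quantified by in-cell western in two HAP1 lines, one with native MTAP levels and one lacking MTAP.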

For experiment [2], the system named is HAP1 MTAP-deleted cell line. The experiment can be described thus: Viability assay, MTAP-deleted cell line. The class given is cell-based. Particulars: Homo sapiens, HAP1, viability assay, MTAP-deleted cell line; read-out: HAP1 MTAP deleted viability. The text has this:
Table 1 additionally indicates IC50 values in a viability assay for the MTAP-deleted cell line (column 10), indicating the effect of treatment with compound on cell survival.

The target in experiment [3] is T1, PRMT5 (Homo sapiens, UniProt O14744).
T1 construct: purchased Viva (custom protein)
T1 sequence (O14744 whole entry): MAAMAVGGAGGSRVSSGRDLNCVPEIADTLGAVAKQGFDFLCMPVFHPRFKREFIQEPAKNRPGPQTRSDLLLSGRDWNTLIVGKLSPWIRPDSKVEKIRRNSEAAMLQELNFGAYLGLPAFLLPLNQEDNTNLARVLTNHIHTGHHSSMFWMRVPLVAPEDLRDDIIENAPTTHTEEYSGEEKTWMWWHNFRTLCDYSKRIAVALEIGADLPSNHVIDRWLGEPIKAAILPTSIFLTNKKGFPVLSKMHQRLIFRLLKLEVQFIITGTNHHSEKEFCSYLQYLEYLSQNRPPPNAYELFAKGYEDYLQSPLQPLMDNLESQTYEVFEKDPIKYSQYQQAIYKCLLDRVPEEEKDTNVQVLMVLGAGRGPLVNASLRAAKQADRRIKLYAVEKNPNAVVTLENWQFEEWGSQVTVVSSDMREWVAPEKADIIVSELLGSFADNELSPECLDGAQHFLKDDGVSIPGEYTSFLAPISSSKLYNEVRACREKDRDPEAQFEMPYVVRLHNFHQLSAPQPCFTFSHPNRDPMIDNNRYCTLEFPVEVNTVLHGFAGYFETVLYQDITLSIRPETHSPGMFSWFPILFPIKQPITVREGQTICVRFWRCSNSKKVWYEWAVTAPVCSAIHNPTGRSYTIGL
T1 sequence (Q9BQA1 whole entry partner): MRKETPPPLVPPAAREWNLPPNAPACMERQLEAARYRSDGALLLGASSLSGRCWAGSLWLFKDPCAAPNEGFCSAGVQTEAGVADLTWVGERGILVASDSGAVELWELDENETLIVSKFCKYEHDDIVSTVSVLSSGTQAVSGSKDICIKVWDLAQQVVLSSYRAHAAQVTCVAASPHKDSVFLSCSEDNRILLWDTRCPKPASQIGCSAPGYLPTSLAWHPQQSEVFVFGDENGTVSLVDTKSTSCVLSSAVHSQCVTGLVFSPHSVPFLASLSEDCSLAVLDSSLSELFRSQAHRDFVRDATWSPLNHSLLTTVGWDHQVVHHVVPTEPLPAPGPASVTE
The experiment can be described thus: PRMT5 biochemical IC50 assay with no cofactor. Particulars: PRMT5, no cofactor; read-out: No Cofactor/rel IC50. The text has this:
Table 1 indicates IC50 values (μM) against PRMT5 for exemplary compounds in the presence of SAM as cofactor, with no cofactor, and with MTA as cofactor, respectively (columns 4-6). […] Ki values can be calculated from the IC50 values as described in the Examples section. As detailed in the Examples section, for the assay performed in the presence of SAM, IC50=Ki×1.5 (Ki=IC50/1.5).

Experiment [4] addresses T1, PRMT5. The experiment can be described thus: PRMT5 biochemical IC50 assay with SAM as cofactor. To be noted: PRMT5, SAM as cofactor; read-out: SAM IC50.
For experiment [5], the target named is T1, PRMT5. The experiment can be described thus: PRMT5 biochemical IC50 assay with MTA as cofactor. Particulars: PRMT5, MTA as cofactor; read-out: MTA IC50.
Experiment [6] concerns HAP1 MTAP-deleted cell line. Description: SDMA in-cell western assay, HAP1 MTAP-deleted. The class given is cell-based. To be noted: for IC50: Homo sapiens, HAP1, SDMA in-cell western, HAP1 MTAP-deleted, read-out: HAP1 MTAP deleted IC50; for MTAP intact/deleted ratio: IC50 ratio HAP1 MTAP-intact / HAP1 MTAP-deleted, SDMA in-cell western. The gist of the method:
as §1

Regarding `Cc1cc(NC(=O)C(=O)N2C[C@H](C)CC[C@H]2[C@H]2CC[C@@H](O)CC2)cnc1N` (single isomer, unassigned) [Compound 436], the IC50 in experiment [1] is above 1000 nM; in experiment [2] it was above 10000 nM; on PRMT5 [3] it was 50 to 500 nM; on PRMT5 [4], 50 to 500 nM; at PRMT5 [5], 50 to 500 nM; in experiment [6], 100 to 1000 nM. The MTAP intact/deleted ratio result in experiment [6] is reported as “A (an IC50 ratio greater than or equal to 10 fold)”.

As for `C[C@@H]1CC[C@@H](c2ccc(NCC(=O)N(C)C)cc2)N(C(=O)C(=O)Nc2cncc(C(N)=O)c2)C1` (single isomer, unassigned) [Compound 437], the IC50 in experiment [1] was above 1000 nM; in experiment [2] it was 1000 to 10000 nM; on PRMT5 [3], 50 to 500 nM; on PRMT5 [4], 50 to 500 nM; on PRMT5 [5] it was below 50 nM; in experiment [6] it was below 100 nM. Further, the MTAP intact/deleted ratio result in experiment [6] is “A (an IC50 ratio greater than or equal to 10 fold)”.

Regarding `Cc1c(NC(=O)C(=O)N2[C@H](C)CCC[C@@H]2c2ccccc2)cnc(N)c1C` (single isomer, unassigned) [Compound 439], the IC50 in experiment [1] is above 1000 nM; in experiment [2], 1000 to 10000 nM; at PRMT5 [3], 50 to 500 nM; at PRMT5 [4], 50 to 500 nM; on PRMT5 [5] it was below 50 nM; in experiment [6], below 100 nM. Moreover, the MTAP intact/deleted ratio entry in experiment [6] is recorded as “A (an IC50 ratio greater than or equal to 10 fold)”.

Take `C[C@H]1CC[C@H](c2cccc(Cl)c2)N(C(=O)C(=O)Nc2cncc(C(N)=O)c2)C1` (single isomer, unassigned) [Compound 440]: the IC50 is above 1000 nM in experiment [1]; 1000 to 10000 nM in experiment [2]; 50 to 500 nM at PRMT5 [3]; 50 to 500 nM at PRMT5 [4]; below 50 nM on PRMT5 [5]; below 100 nM in experiment [6]. The MTAP intact/deleted ratio entry in experiment [6] was “A (an IC50 ratio greater than or equal to 10 fold)”.

Turning to `CNc1ccc([C@@H]2CC[C@@H](C)CN2C(=O)C(=O)Nc2cncc(C(N)=O)c2)cn1` (single isomer, unassigned) [Compound 443], the IC50 in experiment [1] was above 1000 nM; in experiment [2] it was below 1000 nM; at PRMT5 [3] it was below 50 nM; on PRMT5 [4] it was 50 to 500 nM; at PRMT5 [5] it was below 50 nM; in experiment [6] it was below 100 nM. For the same molecule, the MTAP intact/deleted ratio entry in experiment [6] is on record as “A (an IC50 ratio greater than or equal to 10 fold)”.

On to `COc1ncc(NC(=O)C(=O)N2C[C@H](C)CC[C@H]2c2ccc(F)cc2)cc1C(N)=O` (single isomer, unassigned) [Compound 446], for which the IC50 is above 1000 nM in experiment [1]; 1000 to 10000 nM in experiment [2]; 50 to 500 nM at PRMT5 [3]; 50 to 500 nM at PRMT5 [4]; below 50 nM on PRMT5 [5]; below 100 nM in experiment [6]. Moreover, the MTAP intact/deleted ratio result in experiment [6] is reported as “A (an IC50 ratio greater than or equal to 10 fold)”.

As to `CNc1ccc([C@H]2CC[C@H](C)CN2C(=O)C(=O)Nc2cnc(OC)c(C(N)=O)c2)cn1` (single isomer, unassigned) [Compound 447], the IC50 was above 1000 nM in experiment [1]; below 1000 nM in experiment [2]; below 50 nM at PRMT5 [3]; 50 to 500 nM on PRMT5 [4]; below 50 nM on PRMT5 [5]; below 100 nM in experiment [6]. In addition, the MTAP intact/deleted ratio entry in experiment [6] is recorded as “A (an IC50 ratio greater than or equal to 10 fold)”.

Turning to `CNc1ccc([C@@H]2CC[C@@H](C)CN2C(=O)C(=O)Nc2cnc(OC)c(C(N)=O)c2)cn1` (single isomer, unassigned) [Compound 448], the IC50 was above 1000 nM in experiment [1]; above 10000 nM in experiment [2]; above 500 nM at PRMT5 [3]; above 500 nM on PRMT5 [4]; above 500 nM at PRMT5 [5]; above 1000 nM in experiment [6]. In experiment [6], the MTAP intact/deleted ratio entry is reported as “C (an IC50 ratio of less than 3 fold)”.

In the case of `CNc1cccc([C@@H]2CC[C@@H](C)CN2C(=O)C(=O)Nc2cnc(N)c(C)c2)c1` (single isomer, unassigned) [Compound 449], the IC50 in experiment [1] was 100 to 1000 nM; in experiment [2] it was below 1000 nM; on PRMT5 [3], 50 to 500 nM; at PRMT5 [4] it was 50 to 500 nM; at PRMT5 [5], below 50 nM; in experiment [6] it was below 100 nM. Besides, the MTAP intact/deleted ratio result in experiment [6] is recorded as “A (an IC50 ratio greater than or equal to 10 fold)”.

With `CC(=O)Nc1ccc([C@@H]2CC[C@@H](C)CN2C(=O)C(=O)Nc2cncc(C(N)=O)c2)cc1` (single isomer, unassigned) [Compound 451], the IC50 in experiment [1] was above 1000 nM; in experiment [2], 1000 to 10000 nM; on PRMT5 [3], 50 to 500 nM; at PRMT5 [4], 50 to 500 nM; on PRMT5 [5], below 50 nM; in experiment [6], below 100 nM. Besides, the MTAP intact/deleted ratio entry in experiment [6] is on record as “A (an IC50 ratio greater than or equal to 10 fold)”.

As to `COc1ncc(NC(=O)C(=O)N2C[C@H](C)CC[C@H]2c2ccc3c(c2)CC(=O)N3)cc1C(N)=O` (single isomer, unassigned) [Compound 453], the IC50 in experiment [1] was above 1000 nM; in experiment [2], above 10000 nM; on PRMT5 [3] it was above 500 nM; on PRMT5 [4], above 500 nM; on PRMT5 [5], above 500 nM; in experiment [6] it was above 1000 nM. The MTAP intact/deleted ratio result in experiment [6] is given as “C (an IC50 ratio of less than 3 fold)”.

For the molecule `COc1ncc(NC(=O)C(=O)N2C[C@@H](C)CC[C@@H]2c2ccc3c(c2)CC(=O)N3)cc1C(N)=O` (single isomer, unassigned) [Compound 454], the IC50 in experiment [1] was 100 to 1000 nM; in experiment [2] it was below 1000 nM; at PRMT5 [3] it was below 50 nM; at PRMT5 [4], 50 to 500 nM; on PRMT5 [5], below 50 nM; in experiment [6] it was below 100 nM. In addition, the MTAP intact/deleted ratio result in experiment [6] was “A (an IC50 ratio greater than or equal to 10 fold)”.

As to `C[C@@H]1CC[C@@H](c2ccc(NCC(F)(F)F)cc2)N(C(=O)C(=O)Nc2cncc(C(N)=O)c2)C1` (single isomer, unassigned) [Compound 455], the IC50 in experiment [1] is above 1000 nM; in experiment [2] it was 1000 to 10000 nM; at PRMT5 [3], 50 to 500 nM; on PRMT5 [4] it was 50 to 500 nM; on PRMT5 [5], below 50 nM; in experiment [6] it was 100 to 1000 nM. Besides, in experiment [6], the MTAP intact/deleted ratio result is reported as “A (an IC50 ratio greater than or equal to 10 fold)”.

For `C[C@H]1CN(C(=O)C(=O)Nc2cncc(C(N)=O)c2)[C@H](c2ccccc2)CC1(F)F` (single isomer, unassigned) [Compound 457], the IC50 in experiment [1] was above 1000 nM; in experiment [2], below 1000 nM; at PRMT5 [3], 50 to 500 nM; on PRMT5 [4], 50 to 500 nM; at PRMT5 [5], below 50 nM; in experiment [6], below 100 nM. Also, the MTAP intact/deleted ratio result in experiment [6] is on record as “A (an IC50 ratio greater than or equal to 10 fold)”.

Regarding `Cc1cc(NC(=O)C(=O)N2C[C@H](C)CC[C@H]2c2ccc(F)c(F)c2)cnc1N` (single isomer, unassigned) [Compound 458], the IC50 in experiment [1] is 100 to 1000 nM; in experiment [2] it was 1000 to 10000 nM; on PRMT5 [3], below 50 nM; on PRMT5 [4], 50 to 500 nM; at PRMT5 [5], below 50 nM; in experiment [6] it was below 100 nM. Moreover, the MTAP intact/deleted ratio entry in experiment [6] is listed as “A (an IC50 ratio greater than or equal to 10 fold)”.

Turning to `COc1ncc(NC(=O)C(=O)N2C[C@@H](C)CC[C@@H]2c2ccc(N)nc2)cc1C(N)=O` (single isomer, unassigned) [Compound 460], the IC50 in experiment [1] was above 1000 nM; in experiment [2], below 1000 nM; on PRMT5 [3], below 50 nM; on PRMT5 [4] it was 50 to 500 nM; on PRMT5 [5], below 50 nM; in experiment [6] it was below 100 nM. The MTAP intact/deleted ratio result in experiment [6] was “A (an IC50 ratio greater than or equal to 10 fold)”.

On to `Cc1cc(NC(=O)C(=O)N2C[C@H](C)CC[C@H]2c2ccc(N)cc2)cnc1N` (single isomer, unassigned) [Compound 461], for which the IC50 in experiment [1] is 100 to 1000 nM; in experiment [2], below 1000 nM; at PRMT5 [3] it was below 50 nM; at PRMT5 [4], 50 to 500 nM; on PRMT5 [5], below 50 nM; in experiment [6], below 100 nM. Also, in experiment [6], the MTAP intact/deleted ratio entry was “B (an IC50 ratio greater than or equal to 3 fold but lower than 10 fold)”.

For `C[C@H]1CC[C@H](c2ccc(NS(C)(=O)=O)cc2)N(C(=O)C(=O)Nc2cncc(C(N)=O)c2)C1` (single isomer, unassigned) [Compound 462], the IC50 in experiment [1] was above 1000 nM; in experiment [2], 1000 to 10000 nM; on PRMT5 [3], 50 to 500 nM; at PRMT5 [4], 50 to 500 nM; on PRMT5 [5], below 50 nM; in experiment [6], 100 to 1000 nM. Moreover, the MTAP intact/deleted ratio result in experiment [6] was “A (an IC50 ratio greater than or equal to 10 fold)”.
